Reference: ChEMBL document CHEMBL1148695, “Synthesis and biological activity of nociceptin/orphanin FQ analogues substituted in position 7 or 11 with Calpha,alpha-dialkylated amino acids” (Bioorg Med Chem, 2007)
*1 amine or outer side, *2 acyl side, *3 side chain or, on linkers, in order; H or OH if unused. Where a SMILES comes first, the peptide text is derived from it. [ ]: non-standard residue; d: D form. X1 = N[C@@H](Cc1ccccc1)CN(CC(=O)[*:2])[*:1]; Phe(4-F) = N[C@@H](Cc1ccc(F)cc1)C(=O)O; Aib = CC(C)(N)C(=O)O

Key:
Nociceptin receptor [1] = biological target: T1, Nociceptin receptor (Cavia porcellus, UniProt P47748); assay: Antagonist activity at NOP receptor in Albino guinea pig ileum assessed as effect on electrically stimulated contractions; assay type: functional, tissue-based; conditions: read-out: pA2 (converted)
Nociceptin receptor [2] = biological target: T2, Nociceptin receptor (Mus musculus, UniProt P35377); assay: Antagonist activity at NOP receptor in Swiss mouse vas deferens by [35S]GTP-gamma-S binding assay; assay type: functional, tissue-based; conditions: read-out: pA2 (converted)
Nociceptin receptor [3] = biological target: T3, Nociceptin receptor (Rattus norvegicus, UniProt P35370); assay: Antagonist activity at NOP receptor in Sprague-Dawley rat vas deferens assessed as effect on electrically stimulated contractions; assay type: functional, tissue-based; conditions: read-out: pA2 (converted)
[4] = biological target: Delta-type opioid receptor (Homo sapiens, UniProt P41143); assay: Displacement of [3H]diprenorphine from human recombinant delta opioid receptor expressed in CHO cells; assay type: cell-based
Mu-type opioid receptor = Mu-type opioid receptor (Homo sapiens, UniProt P35372); assay: Displacement of [3H]diprenorphine from human recombinant mu opioid receptor expressed in CHO cells; assay type: cell-based
Nociceptin receptor [5] = biological target: T3, Nociceptin receptor; assay: Agonist activity at NOP receptor in Sprague-Dawley rat vas deferens assessed as effect on electrically stimulated contractions; assay type: functional, tissue-based
Nociceptin receptor [6] = biological target: T1, Nociceptin receptor; assay: (§1) Agonist activity at NOP receptor in Albino guinea pig ileum assessed as effect on electrically stimulated contractions; assay type: functional, tissue-based
[7] = biological target: Nociceptin receptor (Cavia porcellus) (UniProt P47748); assay: as §1; assay type: functional, tissue-based
[8] = biological target: Nociceptin receptor (Mus musculus) (UniProt P35377); assay: (§2) Agonist activity at NOP receptor in Swiss mouse vas deferens by [35S]GTP-gamma-S binding assay; assay type: functional, tissue-based
Nociceptin receptor [9] = biological target: T2, Nociceptin receptor; assay: as §2; assay type: functional, tissue-based

T3 sequence (P35370 whole entry): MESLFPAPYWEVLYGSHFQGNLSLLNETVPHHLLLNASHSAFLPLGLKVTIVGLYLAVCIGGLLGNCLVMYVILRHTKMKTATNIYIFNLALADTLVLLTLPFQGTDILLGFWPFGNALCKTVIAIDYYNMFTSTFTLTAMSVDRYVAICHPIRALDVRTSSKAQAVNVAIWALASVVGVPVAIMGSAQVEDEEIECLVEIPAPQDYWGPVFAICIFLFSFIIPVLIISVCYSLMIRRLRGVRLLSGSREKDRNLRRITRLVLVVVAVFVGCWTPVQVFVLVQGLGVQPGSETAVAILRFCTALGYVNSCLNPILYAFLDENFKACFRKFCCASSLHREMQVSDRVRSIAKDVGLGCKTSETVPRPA
T2 sequence (P35377 whole entry): as the sequence (P35370 whole entry) above, with Y9F, S335A counted along it
T1 sequence (P47748 whole entry): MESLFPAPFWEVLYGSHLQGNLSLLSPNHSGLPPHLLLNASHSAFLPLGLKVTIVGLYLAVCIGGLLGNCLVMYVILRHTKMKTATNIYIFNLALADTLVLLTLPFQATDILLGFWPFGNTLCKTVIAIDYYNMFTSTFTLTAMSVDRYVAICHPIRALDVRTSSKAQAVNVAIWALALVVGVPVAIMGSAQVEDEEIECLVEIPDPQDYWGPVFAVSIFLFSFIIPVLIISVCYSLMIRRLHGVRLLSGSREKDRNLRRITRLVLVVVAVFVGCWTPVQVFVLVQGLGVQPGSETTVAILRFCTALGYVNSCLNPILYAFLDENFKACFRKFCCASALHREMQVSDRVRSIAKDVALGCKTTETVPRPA
Chain of Mu-type opioid receptor (P35372 whole entry): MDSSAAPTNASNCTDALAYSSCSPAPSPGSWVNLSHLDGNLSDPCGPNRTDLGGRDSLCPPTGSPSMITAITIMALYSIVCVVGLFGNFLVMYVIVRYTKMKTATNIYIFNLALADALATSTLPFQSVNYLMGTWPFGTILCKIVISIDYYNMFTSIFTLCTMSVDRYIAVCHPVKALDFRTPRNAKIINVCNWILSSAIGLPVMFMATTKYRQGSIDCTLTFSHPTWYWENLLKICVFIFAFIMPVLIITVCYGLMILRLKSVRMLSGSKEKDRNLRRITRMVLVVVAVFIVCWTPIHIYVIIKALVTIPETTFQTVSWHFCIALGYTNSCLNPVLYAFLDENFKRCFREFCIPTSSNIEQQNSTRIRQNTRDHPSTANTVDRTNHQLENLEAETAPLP
Chain of Delta-type opioid receptor (P41143 whole entry): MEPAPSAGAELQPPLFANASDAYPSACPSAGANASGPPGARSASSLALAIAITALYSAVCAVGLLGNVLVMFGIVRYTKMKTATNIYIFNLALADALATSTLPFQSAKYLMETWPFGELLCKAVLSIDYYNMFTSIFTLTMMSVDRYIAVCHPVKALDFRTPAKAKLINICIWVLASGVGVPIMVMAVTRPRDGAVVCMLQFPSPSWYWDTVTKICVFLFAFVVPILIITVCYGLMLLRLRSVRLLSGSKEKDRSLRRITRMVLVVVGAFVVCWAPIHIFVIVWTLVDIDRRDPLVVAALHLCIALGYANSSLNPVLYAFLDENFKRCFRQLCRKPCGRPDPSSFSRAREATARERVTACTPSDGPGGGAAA
Chain of Nociceptin receptor (Mus musculus) (P35377 whole entry): as the sequence (P35370 whole entry) above, with Y9F, S335A counted along it
Chain of Nociceptin receptor (Cavia porcellus) (P47748 whole entry): as the sequence (P47748 whole entry) above

Row | Compound | Kb (Nociceptin receptor [1]) | Kb (Nociceptin receptor [2]) | Kb (Nociceptin receptor [3]) | Ki [4] | Ki (Mu-type opioid receptor) | EC50 (Nociceptin receptor [5]) | EC50 (Nociceptin receptor [6]) | Emax [7] | Emax [8] | EC50 (Nociceptin receptor [9])
1 | C[C@H](NC(=O)[C@H](CO)NC(=O)[C@H](CCCCN)NC(=O)[C@H](CCCNC(=N)N)NC(=O)C(C)(C)NC(=O)CNC(=O)[C@@H](NC(=O)[C@H](Cc1ccc(F)cc1)NC(=O)CNC(=O)CNC[C@@H](N)Cc1ccccc1)[C@@H](C)O)C(=O)N[C@@H](CCCNC(=N)N)C(=O)N[C@@H](CCCCN)C(=O)N[C@@H](CCCNC(=N)N)C(=O)N[C@@H](CCCCN)C(=O)N[C@@H](CC(N)=O)C(=O)N[C@@H](CCC(N)=O)C(N)=O (H-[X1]G[Phe(4-F)]TG[Aib]RKSARKRKNQ-NH2) | 0.316 nM | 0.794 nM | 0.603 nM | – | – | – | – | – | – | –
2 | C[C@H](NC(=O)[C@H](CO)NC(=O)[C@H](CCCCN)NC(=O)[C@H](CCCNC(=N)N)NC(=O)C(C)(C)NC(=O)CNC(=O)[C@@H](NC(=O)[C@H](Cc1ccccc1)NC(=O)CNC(=O)CNC(=O)CNCc1ccccc1)[C@@H](C)O)C(=O)N[C@@H](CCCNC(=N)N)C(=O)N[C@@H](CCCCN)C(=O)N[C@@H](CCCNC(=N)N)C(=O)N[C@@H](CCCCN)C(=O)N[C@@H](CC(N)=O)C(=O)N[C@@H](CCC(N)=O)C(N)=O | 46.8 nM | 34.7 nM | 87.1 nM | > 10000 nM | > 10000 nM | – | – | – | – | –
3 | C[C@H](NC(=O)[C@H](CO)NC(=O)[C@H](CCCCN)NC(=O)[C@H](CCCNC(=N)N)NC(=O)C(C)(C)NC(=O)CNC(=O)[C@@H](NC(=O)[C@H](Cc1ccc(F)cc1)NC(=O)CNC(=O)CNC(=O)[C@@H](N)Cc1ccccc1)[C@@H](C)O)C(=O)N[C@@H](CCCNC(=N)N)C(=O)N[C@@H](CCCCN)C(=O)N[C@@H](CCCNC(=N)N)C(=O)N[C@@H](CCCCN)C(=O)N[C@@H](CC(N)=O)C(=O)N[C@@H](CCC(N)=O)C(N)=O | – | – | – | – | – | 4.57 nM | 0.676 nM | 32% | 84% | 0.575 nM
